Results from patent US7312330B2, “Bicycloheteroarylamine compounds as ion channel ligands and uses thereof” (Renovis, Inc., priority 2003, dated 2007).

Assays:
hVR1 = hVR1 (Homo sapiens, UniProt Q8NER1); assay: Calcium imaging assay (Fura2) of VR1 antagonists, proton stimulation; type: cell-based; settings: HEK 293 cells expressing hVR1; for % Inhibition @ 1 μM: calcium ion influx induced by proton stimulation (pH 5.7); for IC50: calcium ion influx induced by proton stimulation
Excerpt: VR1 protein is a heat-gated cation channel that exchanges about 10 calcium ions for every sodium ion resulting in neuronal membrane depolarization and elevated intracellular calcium ion levels. Therefore the functional activity of compounds at the VR1 receptor may be determined by measuring changes in intracellular calcium levels in 293 cells expressing capsaicin-insensitive VR1 receptor variants. A dual wavelength ratiometric dye, Fura2, was used as an indicator of relative levels of calcium ions in a 96 well format using a bench top scanning fluorometer with integrated fluidics and temperature control (Flex Station, Molecular Devices).
A dual wavelength ratiometric dye, Fura2, was used as an indicator of relative levels of [Ca2+] in a 96 well format using a bench top scanning fluorometer with integrated fluidics and temperature control (Flex Station, Molecular Devices).
HEK 293 cells expressing hVR1 were grown on PDL coated 96-well black-walled plates, in the presence of a DMEM medium containing 5% Penstrep, 5% Glutamax, 200 ug/mL Hygromycin, 5 μg/mL Blasticide and 10% heat inactivated FBS. Prior to assay, the cells were loaded with 5 μg/mL Fura2 in normal saline solution at 37° C. for 40 minutes. Cells were then washed with normal saline to remove the dye.
The assay consists of two stages; a pre-treatment phase followed by a treatment phase. In the pretreatment phase, 50 μl of a compound solution was added to the cells. Immediately following, 50 μl of the test compound in the presence of agonist (a saline solution plus 10 mM citric acid bufferd to pH 5.7 with HCl) was added. Fura2 was excited at […] to indicate relative calcium concentration. Changes in wavelength measurements were made throughout the course of the experiment in 4 second intervals over a period of 3 minutes. The fluorescence ratio from the excitations at […] was recorded for analysis. Responses were measured as peak fluorescence ratio after compound-agonist addition minus baseline fluorescence ratio prior to treatment and were calculated for each concentration tested using the SoftMaxPro software. Data was expressed as percentage inhibition calculated as follows: […]
A dose response curve was then determined, from which the ID50 of each compound was calculated.

HsVR1 = biological target: T1, HsVR1 (Homo sapiens, UniProt Q8NER1); assay: Two-electrode voltage clamp recording of capsaicin induced VR1 current in Xenopus oocytes; type: cell-based; settings: 250 nM capsaicin induced current; Xenopus oocytes injected with HsVR1 RNA; read-out: EPHYS IC50
T1 construct: expressed in transfected cells; host or cells: Xenopus oocytes injected with HsVR1 RNA
Experimental: Xenopus ovaries obtained from NASCO were isolated by enzymatic dissociation using collagenase (Worthington, 2 mg/ml). Oocytes were then individually injected with HsVR1 RNA (0.5 μg/μl). Injected oocytes are stored in standard oocyte incubation solution, ND96, containing 96 mM NaCl, 2 mM KCl, 1 mM MgCl2, 0.3 mM CaCl2 and 50 µg/ml Gentamicin at 16° C. Capsaicin induced VR1 current is observed in oocytes 4-5 days after injection. Eight oocytes are placed in the recording chambers. Each oocyte is impaled by 2 glass electrodes having resistances of 0.5 to 1 MOhm when filled with a 3 M KCl solution. Electrode advancement and oocyte impalement are under software control (OpusXpress 1.1, Axon Instruments). VR1 expression in the oocytes is verified using 250 nM capsaicin. Test solution delivery to the oocytes during the experiment is also under software control. The solutions are prepared in 96 well plates and robotically pipetted into the oocyte recording chambers by an 8 channel pipetter. Oocytes are exposed to several 250 μl applications of 250 nM capsaicin until a stable current amplitude is obtained with each application. A set of 96 well plates containing the test solutions is prepared so that the sequence of solution application to the oocyte is as follows: 250 μls of 250 nM capsaicin is followed by a several minute wash with standard oocyte saline. 1 ml of the test compound is then added at a particular test concentration, followed immediately by 250 μl of the compound at the same concentration plus 250 nM capsaicin. The capsaicin induced VR1 current is recorded in the presence and absence of test compound for each concentration. The standard test concentrations range from 0.3 to 2000 nM. Quantitative measurement of VR1 current block was carried out by calculating the area under the curve described by the inward current. The resulting numbers for capsaicin induced currents in the presence of increasing compound concentration are normalized to the maximum current obtained. These points are then plotted on a logarithmic scale and fitted by a Hill function. The IC50 values for each compound tested were then calculated from the resulting Hill fit. All compounds that inhibited capsaicin induced current greater than 50% were considered positives.

Chain of hVR1 (Q8NER1 whole entry): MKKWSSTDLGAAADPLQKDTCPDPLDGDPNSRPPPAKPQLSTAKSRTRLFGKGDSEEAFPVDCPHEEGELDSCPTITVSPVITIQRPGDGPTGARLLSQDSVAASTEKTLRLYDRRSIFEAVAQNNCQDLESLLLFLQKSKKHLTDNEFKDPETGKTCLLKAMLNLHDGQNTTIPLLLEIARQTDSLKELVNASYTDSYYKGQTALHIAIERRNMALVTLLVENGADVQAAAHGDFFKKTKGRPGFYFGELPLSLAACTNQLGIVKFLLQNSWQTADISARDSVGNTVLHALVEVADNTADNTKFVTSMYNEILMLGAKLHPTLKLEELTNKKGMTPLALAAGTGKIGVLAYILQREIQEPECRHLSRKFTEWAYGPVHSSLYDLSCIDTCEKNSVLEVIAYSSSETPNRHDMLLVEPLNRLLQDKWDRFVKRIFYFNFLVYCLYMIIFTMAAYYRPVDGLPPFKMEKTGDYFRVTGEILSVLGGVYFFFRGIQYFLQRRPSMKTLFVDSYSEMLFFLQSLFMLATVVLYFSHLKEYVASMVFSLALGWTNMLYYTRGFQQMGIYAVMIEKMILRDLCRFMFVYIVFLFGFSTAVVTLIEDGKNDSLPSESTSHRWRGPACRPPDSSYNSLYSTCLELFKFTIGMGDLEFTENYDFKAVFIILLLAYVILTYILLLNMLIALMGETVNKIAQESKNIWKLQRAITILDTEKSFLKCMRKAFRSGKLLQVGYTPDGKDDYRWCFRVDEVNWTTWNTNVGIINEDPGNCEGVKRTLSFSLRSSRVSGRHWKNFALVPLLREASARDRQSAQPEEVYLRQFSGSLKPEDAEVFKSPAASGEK
T1 sequence (Q8NER1 whole entry): as above

| Structure (SMILES) | % Inhibition @ 1 μM (hVR1) | IC50 (hVR1) | IC50 (HsVR1) |
| --- | --- | --- | --- |
| Clc1cccnc1N1CCc2c(ncnc2NCCc2ccccc2)C1 [Example 39, 7-(3-Chloropyridin-2-yl)-5,6,7,8-tetrahydro-N-phenethylpyrido[3,4-d]pyrimidin-4-amine] | ++++ (compound exhibited 76% or greater inhibition of calcium ion influx induced by proton stimulation) | 101 to 500 nM | > 1000 nM |
| FC(F)(F)c1ccc(Nc2nccc3c2CCN(c2ncccc2Cl)C3)cc1 [Example 26, 6-(3-Chloropyridin-2-yl)-N-(4-(trifluoromethyl)phenyl)-5,6,7,8-tetrahydro-2,6-naphthyridin-1-amine] | + (compound exhibited 0-25% inhibition of calcium ion influx induced by proton stimulation) |  | > 1000 nM |
| CCS(=O)(=O)c1cccnc1N1CCc2c(ncnc2Nc2ccc(C(F)(F)F)cc2)C1 [Example 10, 7-(3-(Ethylsulfonyl)pyridin-2-yl)-N-(4-(trifluoromethyl)phenyl)-5,6,7,8-tetrahydropyrido[3,4-d]pyrimidin-4-amine] | +++ (compound exhibited 51-75% inhibition of calcium ion influx induced by proton stimulation) | 101 to 500 nM | 101 to 500 nM |
| CN(C)c1nc2c(c(Nc3ccc(C(F)(F)F)cc3)n1)CCN(c1ncccc1Cl)C2 [Example 34, 7-(3-Chloropyridin-2-yl)-N^4-(4-(trifluoromethyl)phenyl)-5,6,7,8-tetrahydro-N^2N^2-dimethylpyrido[3,4-d]pyrimidine-2,4-diamine] | + (compound exhibited 0-25% inhibition of calcium ion influx induced by proton stimulation) | 101 to 500 nM | 501 to 1000 nM |
| Cc1cccc(N2CCc3c(ncnc3Nc3ccc(C(F)(F)F)cc3)C2)c1 [Example 46, 7-(m-Tolyl)-N-(4-(trifluoromethyl)phenyl)-5,6,7,8-tetrahydropyrido[3,4-d]pyrimidin-4-amine] | + (compound exhibited 0-25% inhibition of calcium ion influx induced by proton stimulation) | > 1000 nM | 501 to 1000 nM |
| COc1nc2c(c(Nc3ccc(C(C)(C)C)cc3)n1)CCN(c1ncccc1Cl)C2 [Example 29, N-(4-tert-Butylphenyl)-7-(3-chloropyridin-2-yl)-5,6,7,8-tetrahydro-2-methoxypyrido[3,4-d]pyrimidin-4-amine] | ++++ (compound exhibited 76% or greater inhibition of calcium ion influx induced by proton stimulation) | < 100 nM | < 100 nM |
| COCc1nc2c(c(Nc3ccc(C(C)(C)C)cc3)n1)CCN(c1ncccc1Cl)C2.Cl [Example 5, N-(4-tert-Butylphenyl)-7-(3-chloropyridin-2-yl)-5,6,7,8-tetrahydro-2-(methoxymethyl)pyrido[3,4-d]pyrimidin-4-amine hydrochloride] | ++++ (compound exhibited 76% or greater inhibition of calcium ion influx induced by proton stimulation) | < 100 nM | < 100 nM |
| FC(F)(F)Oc1ccc(Nc2ncnc3c2CCN(c2ncccc2Cl)C3)cc1 [Example 78, 7-(3-Chloropyridin-2-yl)-5,6,7,8-tetrahydro-N-(4-(trifluoromethoxy)-phenyl)pyrido[3,4-d]pyrimidin-4-amine] | ++++ (compound exhibited 76% or greater inhibition of calcium ion influx induced by proton stimulation) | < 100 nM |  |
| CSc1nc2c(c(Nc3ccc(C(F)(F)F)cc3)n1)CCN(c1ncccc1Cl)C2 [Example 24, [7-(3-Chloro-pyridin-2-yl)-2-methylsulfanyl-5,6,7,8-tetrahydro-pyrido[3,4-d]pyrimidin-4-yl]-(4-trifluoromethyl-phenyl)-amine] |  | 101 to 500 nM |  |
| COC(=O)COc1nc2c(c(Nc3ccc(C(F)(F)F)cc3)n1)CCN(c1ncccc1Cl)C2 [Example 66, Methyl 2-(4-(4-(trifluoromethyl)phenylamino)-7-(3-chloropyridin-2-yl)-5,6,7,8-tetrahydropyrido[3,4-d]pyrimidin-2-yloxy)acetate] | ++++ (compound exhibited 76% or greater inhibition of calcium ion influx induced by proton stimulation) | < 100 nM |  |
| Clc1cccnc1N1CCc2c(ncnc2Nc2ccccc2)C1 [Example 18, 7-(3-Chloropyridin-2-yl)-N-(phenyl)-5,6,7,8-tetrahydropyrido[3,4-d]pyrimidin-4-amine] | + (compound exhibited 0-25% inhibition of calcium ion influx induced by proton stimulation) | > 1000 nM |  |
| O=S(=O)(c1ccc(Nc2ncnc3c2CCN(c2ncccc2C(F)(F)F)C3)cc1)C(F)(F)F [Example 76, 7-(3-(trifluoromethyl)pyridin-2-yl)-5,6,7,8-tetrahydro-N-(4-(trifluoromethylsulfonyl)-phenyl)pyrido[3,4-d]pyrimidin-4-amine] | ++++ (compound exhibited 76% or greater inhibition of calcium ion influx induced by proton stimulation) | < 100 nM |  |
| Clc1cccnc1N1CCc2c(ncnc2Nc2ccc3c(c2)OCCO3)C1 [Example 74, 7-(3-Chloropyridin-2-yl)-5,6,7,8-tetrahydro-N-(2,3-dihydrobenzo[b][1,4]dioxin-6-yl)pyrido[3,4-d]pyrimidin-4-amine] | ++ (compound exhibited 26-50% inhibition of calcium ion influx induced by proton stimulation) | > 1000 nM |  |
| Clc1ccc(Nc2ncnc3c2CCN(c2ncccc2Cl)C3)cc1Cl [Example 42, N-(3,4-Dichlorophenyl)-7-(3-chloropyridin-2-yl)-5,6,7,8-tetrahydropyrido[3,4-d]pyrimidin-4-amine] | ++ (compound exhibited 26-50% inhibition of calcium ion influx induced by proton stimulation) |  |  |
| FC(F)(F)c1cccc(CCNc2ncnc3c2CCN(c2ncccc2Cl)C3)c1 [Example 50, N-(3-(Trifluoromethyl)phenethyl)-7-(3-chloropyridin-2-yl)-5,6,7,8-tetrahydropyrido[3,4-d]pyrimidin-4-amine] | + (compound exhibited 0-25% inhibition of calcium ion influx induced by proton stimulation) |  |  |
| CN1CCOc2cc(Nc3ncnc4c3CCN(c3ncccc3Cl)C4)ccc21 [Example 65, 7-(3-Chloropyridin-2-yl)-5,6,7,8-tetrahydro-N-(3,4-dihydro-4-methyl-2H-benzo[b][1,4]oxazin-7-yl)pyrido[3,4-d]pyrimidin-4-amine] | +++ (compound exhibited 51-75% inhibition of calcium ion influx induced by proton stimulation) | 101 to 500 nM |  |
| CC(C)(C)c1ccc(Nc2ncnc3c2CCN(c2ncccc2Cl)C3)cn1 [Example 49, N-(6-tert-Butylpyridin-3-yl)-7-(3-chloropyridin-2-yl)-5,6,7,8-tetrahydropyrido[3,4-d]pyrimidin-4-amine] | ++++ (compound exhibited 76% or greater inhibition of calcium ion influx induced by proton stimulation) |  |  |
| CC(=O)N1CC(C)(C)c2ccc(Nc3ncnc4c3CCN(c3ncccc3Cl)C4)cc21 [Example 68, 1-(6-(7-(3-Chloropyridin-2-yl)-5,6,7,8-tetrahydropyrido[3,4-d]pyrimidin-4-ylamino)-3,3-dimethylindolin-1-yl)ethanone] | +++ (compound exhibited 51-75% inhibition of calcium ion influx induced by proton stimulation) | 501 to 1000 nM |  |
